Experimental findings from patent publication US20240299385A1 (ReWind Therapeutics NV, priority 2021, published 2024) are described below.

In general, IC50 refers to the concentration needed to halve the response being measured.

The target in the assay is T1, human GPR17 receptor (Homo sapiens, UniProt Q13304).
T1 construct: host or cells: HEK-293
The assay is described as follows: Calcium mobilization functional assay (Fluo-8, FLIPR TETRA) in HEK-293 hGPR17 (Gα-q assay). It is filed as cell-based. As to conditions: antagonism of MDL29,951 (~EC80) induced Ca2+ signal; cell line (HEK-293 hGPR17 or HEK-293 Suchi5 hGPR17) not given. In outline: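 Fluo-8-loaded HEK-293 hGPR17 cells (60 min dye loading, room temperature) were preincubated with compound for twenty minutes, then challenged with agonist MDL29,951 at ~EC80, 500 nM. Intracellular calcium release via Gα-q was recorded as FLIPR fluorescence for a further 2 minutes; compounds tested in duplicate.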
In general terms: A change in cytosolic calcium serves as a functional read-out for many receptors and channels.

T1 sequence (Q13304 whole entry): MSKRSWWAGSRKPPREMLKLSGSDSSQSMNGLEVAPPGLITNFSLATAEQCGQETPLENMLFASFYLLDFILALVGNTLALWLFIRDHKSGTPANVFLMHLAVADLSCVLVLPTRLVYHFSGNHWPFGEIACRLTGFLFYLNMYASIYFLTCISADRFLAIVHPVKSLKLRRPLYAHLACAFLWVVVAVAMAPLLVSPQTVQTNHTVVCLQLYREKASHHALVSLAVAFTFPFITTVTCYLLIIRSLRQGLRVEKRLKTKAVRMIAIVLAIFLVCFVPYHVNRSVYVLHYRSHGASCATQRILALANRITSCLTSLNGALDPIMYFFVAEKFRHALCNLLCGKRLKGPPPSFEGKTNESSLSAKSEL

In the case of `O=S(=O)(Nc1cc(F)c(OC(F)F)cc1F)c1c[nH]c(-c2ccccc2Cl)c1` [Cpd 526, 5-(2-chlorophenyl)-N-[4-(difluoromethoxy)-2,5-difluorophenyl]-1H-pyrrole-3-sulfonamide], the IC50 was in the range of 0.5 to 5 µM. Under `O=S(=O)(Nc1cc(F)c(Br)cc1F)c1c[nH]c(-c2cccc(Cl)n2)c1` [Cpd 527, N-(4-bromo-2,5-difluorophenyl)-5-(6-chloropyridin-2-yl)-1H-pyrrole-3-sulfonamide] stands under 0.5 µM; under `O=S(=O)(Nc1cc(F)c(Br)cc1F)c1c[nH]c(-c2cccc(Br)n2)c1` [Cpd 528, N-(4-bromo-2,5-difluorophenyl)-5-(6-bromopyridin-2-yl)-1H-pyrrole-3-sulfonamide], under 0.5 µM; under `CCc1cc(NS(=O)(=O)c2c[nH]c(-c3ccccc3)c2)c(F)cc1C#N` [Cpd 529, N-(4-cyano-5-ethyl-2-fluorophenyl)-5-phenyl-1H-pyrrole-3-sulfonamide], under 0.5 µM. As to `COc1ccccc1-c1cc(S(=O)(=O)Nc2cc(F)c(OC(F)F)cc2F)c[nH]1` [Cpd 530, N-[4-(difluoromethoxy)-2,5-difluorophenyl]-5-(2-methoxyphenyl)-1H-pyrrole-3-sulfonamide], the IC50 is under 0.5 µM. `COc1c(F)cccc1-c1cc(S(=O)(=O)Nc2cc(F)c(OC(F)F)cc2F)c[nH]1` [Cpd 531, N-[4-(difluoromethoxy)-2,5-difluorophenyl]-5-(3-fluoro-2-methoxyphenyl)-1H-pyrrole-3-sulfonamide]: the IC50 is under 0.5 µM.

As for `COc1ccccc1-c1cc(S(=O)(=O)Nc2cc(F)c(Br)cc2F)c[nH]1` [Cpd 532, N-(4-bromo-2,5-difluorophenyl)-5-(2-methoxyphenyl)-1H-pyrrole-3-sulfonamide], the IC50 is 0.5 to 5 µM.

As to `O=S(=O)(Nc1cc(F)c(Br)cc1F)c1c[nH]c(-c2ccccc2Cl)c1` [Cpd 533, N-(4-bromo-2,5-difluorophenyl)-5-(2-chlorophenyl)-1H-pyrrole-3-sulfonamide], the IC50 lay within 0.5 to 5 µM. Under `O=S(=O)(Nc1cc(F)c(Br)cc1F)c1c[nH]c(-c2cccc3cccnc23)c1` [Cpd 534, N-(4-bromo-2,5-difluorophenyl)-5-quinolin-8-yl-1H-pyrrole-3-sulfonamide] stands 0.5 to 5 µM; under `N#Cc1ccc(NS(=O)(=O)c2c[nH]cc2Cc2ccc(F)c(F)c2)c(F)c1` [Cpd 535, N-(4-cyano-2-fluorophenyl)-4-[(3,4-difluorophenyl)methyl]-1H-pyrrole-3-sulfonamide], under 0.5 µM; under `COc1cc(Cc2c[nH]cc2S(=O)(=O)Nc2ccc(C#N)cc2F)ccc1F` [Cpd 536, N-(4-cyano-2-fluorophenyl)-4-[(4-fluoro-3-methoxyphenyl)methyl]-1H-pyrrole-3-sulfonamide], under 0.5 µM. Regarding `O=S(=O)(Nc1cc(F)c(CO)cc1F)c1c[nH]c(-c2ccccc2)c1` [Cpd 537, N-[2,5-difluoro-4-(hydroxymethyl)phenyl]-5-phenyl-1H-pyrrole-3-sulfonamide], the IC50 is 0.5 to 5 µM. Under `Cc1ncc(-c2cc(S(=O)(=O)Nc3cc(F)c(C(F)(F)F)cc3F)c[nH]2)s1` [Cpd 538, N-[2,5-difluoro-4-(trifluoromethyl)phenyl]-5-(2-methyl-1,3-thiazol-5-yl)-1H-pyrrole-3-sulfonamide] stands 0.5 to 5 µM.

For the compound `COc1sccc1-c1cc(S(=O)(=O)Nc2cc(F)c(C(F)(F)F)cc2F)c[nH]1` [Cpd 539, N-[2,5-difluoro-4-(trifluoromethyl)phenyl]-5-(2-methoxythiophen-3-yl)-1H-pyrrole-3-sulfonamide], the IC50 was under 0.5 µM.

`Cn1cc2cccc(-c3cc(S(=O)(=O)Nc4cc(F)c(C(F)(F)F)cc4F)c[nH]3)c2n1` [Cpd 540, N-[2,5-difluoro-4-(trifluoromethyl)phenyl]-5-(2-methylindazol-7-yl)-1H-pyrrole-3-sulfonamide]: the IC50 fell in the range of 0.5 to 5 µM. `N#Cc1cccc(-c2cc(S(=O)(=O)Nc3cc(F)c(Br)cc3F)c[nH]2)c1` [Cpd 541, N-(4-bromo-2,5-difluorophenyl)-5-(3-cyanophenyl)-1H-pyrrole-3-sulfonamide]: the IC50 was under 0.5 µM. For `N#Cc1ccc(NS(=O)(=O)c2c[nH]c(-c3cccc(F)c3OC3CC3)c2)c(F)c1` [Cpd 542, N-(4-cyano-2-fluorophenyl)-5-(2-cyclopropyloxy-3-fluorophenyl)-1H-pyrrole-3-sulfonamide], the IC50 was under 0.5 µM. For the compound `N#Cc1ccc(NS(=O)(=O)c2c[nH]c(-c3ncc(F)cc3F)c2)c(F)c1` [Cpd 543, N-(4-cyano-2-fluorophenyl)-5-(3,5-difluoropyridin-2-yl)-1H-pyrrole-3-sulfonamide], the IC50 was under 0.5 µM.

For the compound `COc1c(F)cccc1-c1cc(S(=O)(=O)Nc2cc(F)c(Br)cc2F)c[nH]1` [Cpd 544, N-(4-bromo-2,5-difluorophenyl)-5-(3-fluoro-2-methoxyphenyl)-1H-pyrrole-3-sulfonamide], the IC50 was under 0.5 µM.

With `N#Cc1ccc(NS(=O)(=O)c2c[nH]cc2Cc2ccc(F)c(Cl)c2)c(F)c1` [Cpd 545, 4-[(3-chloro-4-fluorophenyl)methyl]-N-(4-cyano-2-fluorophenyl)-1H-pyrrole-3-sulfonamide], the IC50 was under 0.5 µM. On to `N#Cc1ccc(NS(=O)(=O)c2c[nH]cc2Cc2cc(F)cc(F)c2)c(F)c1` [Cpd 546, N-(4-cyano-2-fluorophenyl)-4-[(3,5-difluorophenyl)methyl]-1H-pyrrole-3-sulfonamide], for which the IC50 is under 0.5 µM.

As to `COc1cc(F)cc(Cc2c[nH]cc2S(=O)(=O)Nc2ccc(C#N)cc2F)c1` [Cpd 547, N-(4-cyano-2-fluorophenyl)-4-[(3-fluoro-5-methoxyphenyl)methyl]-1H-pyrrole-3-sulfonamide], the IC50 was in the range of 0.5 to 5 µM. Take `N#Cc1cc(F)c(NS(=O)(=O)c2c[nH]cc2Cc2cccc(OC(F)F)c2)cc1F` [Cpd 548, N-(4-cyano-2,5-difluorophenyl)-4-[[3-(difluoromethoxy)phenyl]methyl]-1H-pyrrole-3-sulfonamide]: the IC50 was under 0.5 µM. For the compound `N#Cc1cc(F)c(NS(=O)(=O)c2c[nH]c(C3CCC3)c2)cc1F` [Cpd 549, N-(4-cyano-2,5-difluorophenyl)-5-cyclobutyl-1H-pyrrole-3-sulfonamide], the IC50 was under 0.5 µM. As for `O=S(=O)(Nc1cc(F)c(OC(F)F)cc1F)c1c[nH]c(C2CCC2)c1` [Cpd 550, 5-cyclobutyl-N-[4-(difluoromethoxy)-2,5-difluorophenyl]-1H-pyrrole-3-sulfonamide], the concentration for half-maximal inhibition (IC50) was under 0.5 µM.

On to `O=S(=O)(Nc1cc(F)c(Br)cc1F)c1c[nH]c(C2CCC2)c1` [Cpd 551, N-(4-bromo-2,5-difluorophenyl)-5-cyclobutyl-1H-pyrrole-3-sulfonamide], for which the IC50 was under 0.5 µM. Under `O=S(=O)(Nc1cc(F)c(OC(F)F)cc1F)c1c[nH]c(-c2cccc3cccnc23)c1` [Cpd 552, N-[4-(difluoromethoxy)-2,5-difluorophenyl]-5-quinolin-8-yl-1H-pyrrole-3-sulfonamide] stands 0.5 to 5 µM; under `O=S(=O)(Nc1cc(F)c(OC(F)F)cc1F)c1c[nH]c(-c2cccc3ccoc23)c1` [Cpd 553, 5-(1-benzofuran-7-yl)-N-[4-(difluoromethoxy)-2,5-difluorophenyl]-1H-pyrrole-3-sulfonamide], 0.5 to 5 µM; under `N#Cc1ccc(F)c(-c2cc(S(=O)(=O)Nc3cc(F)c(C(F)(F)F)cc3F)c[nH]2)c1` [Cpd 554, 5-(5-cyano-2-fluorophenyl)-N-[2,5-difluoro-4-(trifluoromethyl)phenyl]-1H-pyrrole-3-sulfonamide], under 0.5 µM. With `Cn1cccc(-c2cc(S(=O)(=O)Nc3cc(F)c(C(F)(F)F)cc3F)c[nH]2)c1=O` [Cpd 555, N-[2,5-difluoro-4-(trifluoromethyl)phenyl]-5-(1-methyl-2-oxopyridin-3-yl)-1H-pyrrole-3-sulfonamide], the IC50 is under 0.5 µM. `O=S(=O)(Nc1cc(F)c(C(F)(F)F)cc1F)c1c[nH]c(-c2cnccc2Cl)c1` [Cpd 556, 5-(4-chloropyridin-3-yl)-N-[2,5-difluoro-4-(trifluoromethyl)phenyl]-1H-pyrrole-3-sulfonamide]: the IC50 was under 0.5 µM. Consider `O=S(=O)(Nc1cc(F)c(C(F)(F)F)cc1F)c1c[nH]c(-c2c(F)ccnc2F)c1` [Cpd 557, 5-(2,4-difluoropyridin-3-yl)-N-[2,5-difluoro-4-(trifluoromethyl)phenyl]-1H-pyrrole-3-sulfonamide], for which the IC50 is under 0.5 µM. With `O=S(=O)(Nc1cc(F)c(C(F)(F)F)cc1F)c1c[nH]cc1Cc1cccc(OC(F)F)c1` [Cpd 558, 4-[[3-(difluoromethoxy)phenyl]methyl]-N-[2,5-difluoro-4-(trifluoromethyl)phenyl]-1H-pyrrole-3-sulfonamide], the IC50 fell in the range of 0.5 to 5 µM.

Consider `O=S(=O)(Nc1cc(F)c(C(F)(F)F)cc1F)c1c[nH]c(-c2cnsc2)c1` [Cpd 559, N-[2,5-difluoro-4-(trifluoromethyl)phenyl]-5-(1,2-thiazol-4-yl)-1H-pyrrole-3-sulfonamide], for which the IC50 was under 0.5 µM. Under `COCc1cccnc1-c1cc(S(=O)(=O)Nc2cc(F)c(C(F)(F)F)cc2F)c[nH]1` [Cpd 560, N-[2,5-difluoro-4-(trifluoromethyl)phenyl]-5-[3-(methoxymethyl)pyridin-2-yl]-1H-pyrrole-3-sulfonamide] stands 5 to 50 µM; under `O=S(=O)(Nc1cc(F)c(Br)cc1F)c1c[nH]c(-c2cccc3ccoc23)c1` [Cpd 561, 5-(1-benzofuran-7-yl)-N-(4-bromo-2,5-difluorophenyl)-1H-pyrrole-3-sulfonamide], 0.5 to 5 µM. With `N#Cc1ccc(NS(=O)(=O)c2c[nH]c(-c3csc(Cl)c3)c2)c(F)c1` [Cpd 562, 5-(5-chlorothiophen-3-yl)-N-(4-cyano-2-fluorophenyl)-1H-pyrrole-3-sulfonamide], the IC50 is under 0.5 µM. As to `N#Cc1ccc(NS(=O)(=O)c2c[nH]c(-c3cc(Cl)cs3)c2)c(F)c1` [Cpd 563, 5-(4-chlorothiophen-2-yl)-N-(4-cyano-2-fluorophenyl)-1H-pyrrole-3-sulfonamide], the IC50 was under 0.5 µM.
